# Patent US9040715B2 (priority 2008, dated 2015)
# Assays:
# [1] = tested on: Saccharomyces cerevisiae (YPH501); experiment: Anti-fungal/anti-yeast activity: MIC50 (broth microdilution) and MFC; format: cell-based; details: for MFC / MIC: Saccharomyces cerevisiae; for Activity (fungicidal/fungistatic) / Ratio MFC/MIC: Saccharomyces cerevisiae (YPH501); for MIC: read-out: MIC-50
# Candidia parapsilosis = experiment: as above; format: cell-based; details: for Activity (fungicidal/fungistatic) / Ratio MFC/MIC: Candidia parapsilosis; for MIC: read-out: MIC-50
# Protocol: (§1) Fluconazole, an ergosterol inhibitor, and the beta-1,3-glucan inhibitor micafungin served as controls (See Tables 1-8).
# (§2) The minimum inhibitory concentrations resulting in 50% growth inhibition (MIC50) of […] Candida species (C. albicans, C. tropicalis and C. glabrata, C. lusitaniae, C. parapsilosis, and C. apicola) as well as Aspergillus fumigatus to a set of novel synthetic compounds was determined in accordance with the guidelines in CLSI document M27-A2 (Clinical and Laboratory Standards Institute; Wayne, Pa.). The total volume of cells and drug was 100 μL per microtiter well, and each drug was diluted in RPMI to achieve final concentrations of 0.2-100 μg/ml. Uninoculated cultures were used as a reference standard. Stock inoculum suspensions were prepared from 24 hour cultures on YPD (yeast extract/peptone/dextrose) media at 30° C. For MIC determinations, an inoculum of 1.0×10^3 cells of Candidia and 2.0×10^3 cells of Aspergillus per well were used, and cells in diluted drugs were prepared in RPMI-1640 medium. MICs were determined both visually and spectrophotometrically at 24 hours and 48 h at 550 nm using a micro plate reader. The MIC50 endpoint was measured as the lowest drug concentration resulting in a reduction of growth of 50% or more compared with growth of the control.
# (§3) The minimum fungicidal concentrations (MFCs) were determined for each drug-isolate-medium combination as follows. After 48 hours of incubation, 100 μL of each drug-isolate-medium combination (2 plates) was subcultured onto YPD plates (100 μL of solution was spread over the YPD plate). […] The plates were then incubated at 30° C. for 48 hours.
# (§4) The in vitro fungicidal activities (MFCs) were determined for each drug-isolate-medium combination as follows. After 48 hours of incubation, 10 μL each drug-isolate-medium combination was spotted onto YPD plates (10 μL of each well is spotted sequentially with positive and negative control wells). […] The plates were then incubated at 30° C. for 48 hours.
# Candida lusitaniae = experiment: as above; format: cell-based; details: for Activity (fungicidal/fungistatic) / Ratio MFC/MIC: Candida lusitaniae; for MFC / MIC: Clavispora lusitaniae; for MIC: read-out: MIC-50
# Protocol: as §1, §2, §3, §4
# Candida glabrata = experiment: as above; format: cell-based; details: for Activity (fungicidal/fungistatic) / Ratio MFC/MIC: Candida glabrata; for MFC / MIC: Nakaseomyces glabratus; for MIC: read-out: MIC-50
# Protocol: as §1, §2, §3, §4
# Candida tropicalis = experiment: as above; format: cell-based; details: for MIC: read-out: MIC-50
# Protocol: as §1, §2, §3, §4
# Candida apicola = experiment: as above; format: cell-based; details: for Activity (fungicidal/fungistatic) / MIC-50 / Ratio MFC/MIC: Candida apicola; for MFC: Starmerella apicola
# Protocol: as §1, §2, §3, §4
# Candida albicans (CAF-2) = experiment: as above; format: cell-based; details: for MIC: read-out: MIC-50
# Protocol: as §1, §2, §3, §4
# Aspergillus fumigatus = experiment: as above; format: cell-based
# Protocol: as §1, §2, §3, §4
# Huh7 or HepG2 cell line = experiment: MTT assay (cytotoxicity); format: cell-based, human; details: 24 hours and 48 hours
# Protocol: The MTT assay is a colorimetric assay that measures the reduction of yellow 3-(4,5-dimethylhiazol-2-yl)-2,5-diphenyl tetrazolium bromide (MTT) by mitochondrial succinate dehydrogenase. The MTT enters the cells and passes into the mitochondria where it is reduced to an insoluble, dark purple, formazan product. The cells are then solubilized with an organic solvent (e.g., isopropanol) and the released, solubilized formazan reagent is measured spectrophotometrically. Since reduction of MTT can only occur in metabolically active cells, the level of activity is a measure of the viability of the cells.
# Cells of the Huh7 or HepG2 cell line were seeded in a 96 well plate. The plate was incubated overnight at 37° C. in a humidified incubator, 5% CO2. The test compounds were added to the plate. Different concentrations of drug were tested in triplicate along with a negative control. The final volume was adjusted to 100 μl per well. The plate was incubated overnight at 37° C. in a humidified incubator, 5% CO2. After 24 hours and 48 hours, MTT reagent (5 mg/ml, 10 μl/100 μl per well of the 96 well plate) was added and incubated at 37° C. for 3 hours. After 3 hours, 100 μl of the DMSO solution was added to each well and the plate was rocked at room temperature for 1 hour. The plate was then read on a plate reader at […].
# Huh7 cells = experiment: Neutral red uptake assay (cytotoxicity); format: cell-based, human
# From the text: The neutral red uptake assay is a cytotoxicity test that is based on the ability of viable cells to incorporate and bind the supra-vital dye neutral red in the lysosomes. This weakly cationic dye penetrates cell membranes by non-ionic passive diffusion and concentrates in the lysosomes, where it binds by electrostatic hydrophobic bonds to anionic and phosphate groups of the lysosomal matrix. The dye is then extracted from the viable cells using an acidified ethanol solution, and the absorbance of the solubilized dye is read. When the cell dies or the pH gradient is reduced, the dye is not retained and consequently, the amount of retained dye is proportional to the number of viable cells. Most primary cells and cell lines can be used for this method. The HepG2 and Huh7, two human hepatoma cell lines, were used for this study. The cells were seeded in 96-well tissue culture plates and treated for 48 hours with the compounds. The plates were then incubated for 2 hours with a medium containing neutral red. The cells were subsequently washed, the dye was extracted in each well, and the absorbance was read using a spectrophotometer (FIG. 3 and Table 11).
# C. albicans Mutants = experiment: MIC50 in C. albicans mutant strains; format: cell-based; details: Candida albicans
# Protocol: as §2
# The MIC50 of Compounds I-1, I-2, and I-5 in several mutant strains of Candida albicans, including fluconazole resistant clinical strains, was determined according to the methods described in Example 1 (see Table 9). The activity of Compound I-1 against fluconazole resistant strains was further explored (see Table 10). In Table 10, Strain #1 is a fluconazole sensitive Candida albicans strain; Strain #17 is a fluconazole resistant Candida albicans strain; C. albicans CS#01 is a first clinical strain; C. albicans CS#02 is a second clinical strain.
SMILES,MFC [1] [µg/mL],Activity (fungicidal/fungistatic) [1],Ratio MFC/MIC [1],MIC [1] [µg/mL],MFC (Candidia parapsilosis) [µg/mL],Activity (fungicidal/fungistatic) (Candidia parapsilosis),Ratio MFC/MIC (Candidia parapsilosis),MIC (Candidia parapsilosis) [µg/mL],Activity (fungicidal/fungistatic) (Candida lusitaniae),Ratio MFC/MIC (Candida lusitaniae),MFC (Candida lusitaniae) [µg/mL],MIC (Candida lusitaniae) [µg/mL],Activity (fungicidal/fungistatic) (Candida glabrata),Ratio MFC/MIC (Candida glabrata),MFC (Candida glabrata) [µg/mL],MIC (Candida glabrata) [µg/mL],Activity (fungicidal/fungistatic) (Candida tropicalis),MFC (Candida tropicalis) [µg/mL],Ratio MFC/MIC (Candida tropicalis),MIC (Candida tropicalis) [µg/mL],further results
COc1ccc(Cc2nnc(Cn3sc4ccccc4c3=O)o2)cc1 [Compound I-3],12.5,fungicidal (An MFC/MIC ratio of less than four indicates that the compound is fungicidal),1,12.5,12.5,fungicidal (An MFC/MIC ratio of less than four indicates that the compound is fungicidal),2,6.4,fungicidal (An MFC/MIC ratio of less than four indicates that the compound is fungicidal),2,12.5,6.4,fungicidal (An MFC/MIC ratio of less than four indicates that the compound is fungicidal),2,50,25,fungicidal (An MFC/MIC ratio of less than four indicates that the compound is fungicidal),12.5,2,6.4,Activity (fungicidal/fungistatic) (Candida apicola): fungicidal (An MFC/MIC ratio of less than four indicates that the compound is fungicidal); MIC-50 (Candida apicola): 6.4 µg/mL; Ratio MFC/MIC (Candida apicola): 2; MFC (Candida apicola): 12.5 µg/mL; Activity (fungicidal/fungistatic) (Candida albicans (CAF-2)): fungicidal (An MFC/MIC ratio of less than four indicates that the compound is fungicidal); MFC (Candida albicans (CAF-2)): 12.5 µg/mL; Ratio MFC/MIC (Candida albicans (CAF-2)): 1; MIC (Candida albicans (CAF-2)): 12.5 µg/mL; Activity (fungicidal/fungistatic) (Aspergillus fumigatus): fungicidal (An MFC/MIC ratio of less than four indicates that the compound is fungicidal); MFC (Aspergillus fumigatus): 12.5 µg/mL; MIC50 (Aspergillus fumigatus): 6.4 µg/mL; Ratio MFC/MIC (Aspergillus fumigatus): 2; Toxicity to mammalian cell lines (MTT assay) (Huh7 or HepG2 cell line): minimally toxic; Percentage Viability (Huh7 cells; 3.3 μg/mL (approx 1X MIC)): >100%; Percentage Viability (Huh7 cells; 10 μg/mL (approx 3X MIC)): >100%; Percentage Viability (Huh7 cells; 33 μg/mL (approx 10X MIC)): >100%; Percentage Viability (Huh7 cells; 100 μg/mL (approx 30X MIC)): >100%
O=C(Cn1sc2ccccc2c1=O)NNC(=O)c1cccc(Cl)c1 [Compound I-5],3,fungicidal (An MFC/MIC ratio of less than four indicates that the compound is fungicidal),1,3,12.5,fungicidal (An MFC/MIC ratio of less than four indicates that the compound is fungicidal),2,6.4,fungicidal (An MFC/MIC ratio of less than four indicates that the compound is fungicidal),2,6.4,3.2,fungicidal (An MFC/MIC ratio of less than four indicates that the compound is fungicidal),1,6.4,6.4,fungicidal (An MFC/MIC ratio of less than four indicates that the compound is fungicidal),12.5,2,6.4,MIC50 (C. albicans Mutants; C. albicans strain CAF-2): 6 µg/mL; MIC50 (C. albicans Mutants; C. albicans strain CHK11): 6 µg/mL; MIC50 (C. albicans Mutants; C. albicans strain CHK21): 6 µg/mL; MIC50 (C. albicans Mutants; C. albicans strain CHK23): 6 µg/mL; MIC50 (C. albicans Mutants; C. albicans strain GOA31): 6 µg/mL; MIC50 (C. albicans Mutants; C. albicans strain GOA32): 6 µg/mL; Activity (fungicidal/fungistatic) (Candida apicola): fungicidal (An MFC/MIC ratio of less than four indicates that the compound is fungicidal); MIC-50 (Candida apicola): 6.4 µg/mL; Ratio MFC/MIC (Candida apicola): 2; MFC (Candida apicola): 12.5 µg/mL; Activity (fungicidal/fungistatic) (Candida albicans (CAF-2)): fungicidal (An MFC/MIC ratio of less than four indicates that the compound is fungicidal); MFC (Candida albicans (CAF-2)): 12.5 µg/mL; Ratio MFC/MIC (Candida albicans (CAF-2)): 2; MIC (Candida albicans (CAF-2)): 6.4 µg/mL; Toxicity to mammalian cell lines (MTT assay) (Huh7 or HepG2 cell line): minimally toxic; Percentage Viability (Huh7 cells; 3.3 μg/mL (approx 1X MIC)): >100%; Percentage Viability (Huh7 cells; 10 μg/mL (approx 3X MIC)): >100%; Percentage Viability (Huh7 cells; 33 μg/mL (approx 10X MIC)): >100%; Percentage Viability (Huh7 cells; 100 μg/mL (approx 30X MIC)): 92%
